# Test system: SGC-7901
# Test: Cytotoxicity against human SGC7901 cells after 48 hrs by MTT assay
# Format: functional, cell-based
# Settings: SGC-7901, 48 h
row,SMILES,IC50
1,CCOC(=O)[C@]1(C)CCC[C@@]2(C)[C@@H]3CC[C@@]4(C)C[C@]3(CC[C@@H]21)[C@@H]1CON(C(=S)Nc2ccc([N+](=O)[O-])cc2)[C@@H]14,49.8 µM
2,CCOC(=O)[C@]1(C)CCC[C@@]2(C)[C@@H]3CC[C@@]4(C)C[C@]3(CC[C@@H]21)c1cn(C(=S)Nc2ccc(Cl)cc2Cl)nc14,20.1 µM
3,CCOC(=O)[C@]1(C)CCC[C@@]2(C)[C@@H]3CC[C@@]4(C)C[C@]3(CC[C@@H]21)c1cn(C(=S)Nc2ccc(OC)cc2)nc14,9.65 µM
4,CCOC(=O)[C@]1(C)CCC[C@@]2(C)[C@@H]3CC[C@@]4(C)C[C@]3(CC[C@@H]21)c1cn(C(=S)Nc2cccc(OC)c2)nc14,12.5 µM
5,CCOC(=O)[C@]1(C)CCC[C@@]2(C)[C@@H]3CC[C@@]4(C)C[C@]3(CC[C@@H]21)[C@@H]1CON(C(=S)Nc2cccc(OC)c2)[C@@H]14,> 50 µM
6,CCOC(=O)[C@]1(C)CCC[C@@]2(C)[C@@H]3CC[C@@]4(C)C[C@]3(CC[C@@H]21)[C@@H]1CON(C(=S)Nc2ccccc2OC)[C@@H]14,> 50 µM
7,CCOC(=O)[C@]1(C)CCC[C@@]2(C)[C@@H]3CC[C@@]4(C)C[C@]3(CC[C@@H]21)c1cn(C(=S)Nc2ccccc2C)nc14,38.1 µM
8,CCOC(=O)[C@]1(C)CCC[C@@]2(C)[C@@H]3CC[C@@]4(C)C[C@]3(CC[C@@H]21)c1cn(C(=S)Nc2cccc(Cl)c2)nc14,16.9 µM
9,CCOC(=O)[C@]1(C)CCC[C@@]2(C)[C@@H]3CC[C@@]4(C)C[C@]3(CC[C@@H]21)c1cn(C(=S)Nc2cccc(C)c2)nc14,15.3 µM
10,CCOC(=O)[C@]1(C)CCC[C@@]2(C)[C@@H]3CC[C@@]4(C)C[C@]3(CC[C@@H]21)[C@@H]1CON(C(=S)Nc2ccccc2Br)[C@@H]14,> 50 µM
11,CCOC(=O)[C@]1(C)CCC[C@@]2(C)[C@@H]3CC[C@@]4(C)C[C@]3(CC[C@@H]21)[C@@H]1CON(C(=S)Nc2ccccc2F)[C@@H]14,28.2 µM
12,CCOC(=O)[C@]1(C)CCC[C@@]2(C)[C@@H]3CC[C@@]4(C)C[C@]3(CC[C@@H]21)c1cn(C(=S)Nc2ccccc2Br)nc14,17.2 µM
13,CCOC(=O)[C@]1(C)CCC[C@@]2(C)[C@@H]3CC[C@@]4(C)C[C@]3(CC[C@@H]21)c1cn(C(=S)Nc2ccccc2OC)nc14,> 50 µM
14,CCOC(=O)[C@]1(C)CCC[C@@]2(C)[C@@H]3CC[C@@]4(C)C[C@]3(CC[C@@H]21)c1cn(C(=S)Nc2ccc(Cl)cc2)nc14,21.7 µM
15,CCOC(=O)[C@]1(C)CCC[C@@]2(C)[C@@H]3CC[C@@]4(C)C[C@]3(CC[C@@H]21)[C@@H]1CON(C(=S)Nc2ccc(F)cc2)[C@@H]14,> 50 µM
16,CCOC(=O)[C@]1(C)CCC[C@@]2(C)[C@@H]3CC[C@@]4(C)C[C@]3(CC[C@@H]21)c1cn(C(=S)Nc2ccccc2Cl)nc14,26.2 µM

# Test system: A549
# Test: Cytotoxicity against human A549 cells after 48 hrs by MTT assay
# Format: functional, cell-based
# Settings: A549, 48 h
row,SMILES,IC50
1,CCOC(=O)[C@]1(C)CCC[C@@]2(C)[C@@H]3CC[C@@]4(C)C[C@]3(CC[C@@H]21)[C@@H]1CON(C(=S)Nc2ccc([N+](=O)[O-])cc2)[C@@H]14,> 50 µM
2,CCOC(=O)[C@]1(C)CCC[C@@]2(C)[C@@H]3CC[C@@]4(C)C[C@]3(CC[C@@H]21)c1cn(C(=S)Nc2ccc(Cl)cc2Cl)nc14,> 50 µM
3,CCOC(=O)[C@]1(C)CCC[C@@]2(C)[C@@H]3CC[C@@]4(C)C[C@]3(CC[C@@H]21)c1cn(C(=S)Nc2ccc(OC)cc2)nc14,17.7 µM
4,CCOC(=O)[C@]1(C)CCC[C@@]2(C)[C@@H]3CC[C@@]4(C)C[C@]3(CC[C@@H]21)c1cn(C(=S)Nc2cccc(OC)c2)nc14,23.3 µM
5,CCOC(=O)[C@]1(C)CCC[C@@]2(C)[C@@H]3CC[C@@]4(C)C[C@]3(CC[C@@H]21)[C@@H]1CON(C(=S)Nc2cccc(OC)c2)[C@@H]14,> 50 µM
6,CCOC(=O)[C@]1(C)CCC[C@@]2(C)[C@@H]3CC[C@@]4(C)C[C@]3(CC[C@@H]21)[C@@H]1CON(C(=S)Nc2ccccc2OC)[C@@H]14,> 50 µM
7,CCOC(=O)[C@]1(C)CCC[C@@]2(C)[C@@H]3CC[C@@]4(C)C[C@]3(CC[C@@H]21)c1cn(C(=S)Nc2ccccc2C)nc14,32.1 µM
8,CCOC(=O)[C@]1(C)CCC[C@@]2(C)[C@@H]3CC[C@@]4(C)C[C@]3(CC[C@@H]21)c1cn(C(=S)Nc2cccc(Cl)c2)nc14,39.1 µM
9,CCOC(=O)[C@]1(C)CCC[C@@]2(C)[C@@H]3CC[C@@]4(C)C[C@]3(CC[C@@H]21)c1cn(C(=S)Nc2cccc(C)c2)nc14,31.9 µM
10,CCOC(=O)[C@]1(C)CCC[C@@]2(C)[C@@H]3CC[C@@]4(C)C[C@]3(CC[C@@H]21)[C@@H]1CON(C(=S)Nc2ccccc2Br)[C@@H]14,> 50 µM
11,CCOC(=O)[C@]1(C)CCC[C@@]2(C)[C@@H]3CC[C@@]4(C)C[C@]3(CC[C@@H]21)[C@@H]1CON(C(=S)Nc2ccccc2F)[C@@H]14,> 50 µM
12,CCOC(=O)[C@]1(C)CCC[C@@]2(C)[C@@H]3CC[C@@]4(C)C[C@]3(CC[C@@H]21)c1cn(C(=S)Nc2ccccc2Br)nc14,38.1 µM
13,CCOC(=O)[C@]1(C)CCC[C@@]2(C)[C@@H]3CC[C@@]4(C)C[C@]3(CC[C@@H]21)c1cn(C(=S)Nc2ccccc2OC)nc14,> 50 µM
14,CCOC(=O)[C@]1(C)CCC[C@@]2(C)[C@@H]3CC[C@@]4(C)C[C@]3(CC[C@@H]21)c1cn(C(=S)Nc2ccc(Cl)cc2)nc14,20 µM
15,CCOC(=O)[C@]1(C)CCC[C@@]2(C)[C@@H]3CC[C@@]4(C)C[C@]3(CC[C@@H]21)[C@@H]1CON(C(=S)Nc2ccc(F)cc2)[C@@H]14,> 50 µM
16,CCOC(=O)[C@]1(C)CCC[C@@]2(C)[C@@H]3CC[C@@]4(C)C[C@]3(CC[C@@H]21)c1cn(C(=S)Nc2ccccc2Cl)nc14,26.6 µM

# Test system: Raji
# Test: Cytotoxicity against human Raji cells after 48 hrs by MTT assay
# Format: functional, cell-based
# Settings: not given
row,SMILES,IC50
1,CCOC(=O)[C@]1(C)CCC[C@@]2(C)[C@@H]3CC[C@@]4(C)C[C@]3(CC[C@@H]21)[C@@H]1CON(C(=S)Nc2ccc([N+](=O)[O-])cc2)[C@@H]14,23.5 µM
2,CCOC(=O)[C@]1(C)CCC[C@@]2(C)[C@@H]3CC[C@@]4(C)C[C@]3(CC[C@@H]21)c1cn(C(=S)Nc2ccc(Cl)cc2Cl)nc14,24.5 µM
3,CCOC(=O)[C@]1(C)CCC[C@@]2(C)[C@@H]3CC[C@@]4(C)C[C@]3(CC[C@@H]21)c1cn(C(=S)Nc2ccc(OC)cc2)nc14,6.51 µM
4,CCOC(=O)[C@]1(C)CCC[C@@]2(C)[C@@H]3CC[C@@]4(C)C[C@]3(CC[C@@H]21)c1cn(C(=S)Nc2cccc(OC)c2)nc14,15.1 µM
5,CCOC(=O)[C@]1(C)CCC[C@@]2(C)[C@@H]3CC[C@@]4(C)C[C@]3(CC[C@@H]21)[C@@H]1CON(C(=S)Nc2cccc(OC)c2)[C@@H]14,> 50 µM
6,CCOC(=O)[C@]1(C)CCC[C@@]2(C)[C@@H]3CC[C@@]4(C)C[C@]3(CC[C@@H]21)[C@@H]1CON(C(=S)Nc2ccccc2OC)[C@@H]14,> 50 µM
7,CCOC(=O)[C@]1(C)CCC[C@@]2(C)[C@@H]3CC[C@@]4(C)C[C@]3(CC[C@@H]21)c1cn(C(=S)Nc2ccccc2C)nc14,15.2 µM
8,CCOC(=O)[C@]1(C)CCC[C@@]2(C)[C@@H]3CC[C@@]4(C)C[C@]3(CC[C@@H]21)c1cn(C(=S)Nc2cccc(Cl)c2)nc14,16 µM
9,CCOC(=O)[C@]1(C)CCC[C@@]2(C)[C@@H]3CC[C@@]4(C)C[C@]3(CC[C@@H]21)c1cn(C(=S)Nc2cccc(C)c2)nc14,14.2 µM
10,CCOC(=O)[C@]1(C)CCC[C@@]2(C)[C@@H]3CC[C@@]4(C)C[C@]3(CC[C@@H]21)[C@@H]1CON(C(=S)Nc2ccccc2Br)[C@@H]14,> 50 µM
11,CCOC(=O)[C@]1(C)CCC[C@@]2(C)[C@@H]3CC[C@@]4(C)C[C@]3(CC[C@@H]21)[C@@H]1CON(C(=S)Nc2ccccc2F)[C@@H]14,32.7 µM
12,CCOC(=O)[C@]1(C)CCC[C@@]2(C)[C@@H]3CC[C@@]4(C)C[C@]3(CC[C@@H]21)c1cn(C(=S)Nc2ccccc2Br)nc14,19.6 µM
13,CCOC(=O)[C@]1(C)CCC[C@@]2(C)[C@@H]3CC[C@@]4(C)C[C@]3(CC[C@@H]21)c1cn(C(=S)Nc2ccccc2OC)nc14,10.1 µM
14,CCOC(=O)[C@]1(C)CCC[C@@]2(C)[C@@H]3CC[C@@]4(C)C[C@]3(CC[C@@H]21)c1cn(C(=S)Nc2ccc(Cl)cc2)nc14,13 µM
15,CCOC(=O)[C@]1(C)CCC[C@@]2(C)[C@@H]3CC[C@@]4(C)C[C@]3(CC[C@@H]21)[C@@H]1CON(C(=S)Nc2ccc(F)cc2)[C@@H]14,> 50 µM
16,CCOC(=O)[C@]1(C)CCC[C@@]2(C)[C@@H]3CC[C@@]4(C)C[C@]3(CC[C@@H]21)c1cn(C(=S)Nc2ccccc2Cl)nc14,21.1 µM

# Test system: HeLa
# Test: Cytotoxicity against human HeLa cells after 48 hrs by MTT assay
# Format: functional, cell-based
# Settings: not given
row,SMILES,IC50
1,CCOC(=O)[C@]1(C)CCC[C@@]2(C)[C@@H]3CC[C@@]4(C)C[C@]3(CC[C@@H]21)[C@@H]1CON(C(=S)Nc2ccc([N+](=O)[O-])cc2)[C@@H]14,> 50 µM
2,CCOC(=O)[C@]1(C)CCC[C@@]2(C)[C@@H]3CC[C@@]4(C)C[C@]3(CC[C@@H]21)c1cn(C(=S)Nc2ccc(Cl)cc2Cl)nc14,> 50 µM
3,CCOC(=O)[C@]1(C)CCC[C@@]2(C)[C@@H]3CC[C@@]4(C)C[C@]3(CC[C@@H]21)c1cn(C(=S)Nc2ccc(OC)cc2)nc14,13.9 µM
4,CCOC(=O)[C@]1(C)CCC[C@@]2(C)[C@@H]3CC[C@@]4(C)C[C@]3(CC[C@@H]21)c1cn(C(=S)Nc2cccc(OC)c2)nc14,> 50 µM
5,CCOC(=O)[C@]1(C)CCC[C@@]2(C)[C@@H]3CC[C@@]4(C)C[C@]3(CC[C@@H]21)[C@@H]1CON(C(=S)Nc2cccc(OC)c2)[C@@H]14,> 50 µM
6,CCOC(=O)[C@]1(C)CCC[C@@]2(C)[C@@H]3CC[C@@]4(C)C[C@]3(CC[C@@H]21)[C@@H]1CON(C(=S)Nc2ccccc2OC)[C@@H]14,> 50 µM
7,CCOC(=O)[C@]1(C)CCC[C@@]2(C)[C@@H]3CC[C@@]4(C)C[C@]3(CC[C@@H]21)c1cn(C(=S)Nc2ccccc2C)nc14,> 50 µM
8,CCOC(=O)[C@]1(C)CCC[C@@]2(C)[C@@H]3CC[C@@]4(C)C[C@]3(CC[C@@H]21)c1cn(C(=S)Nc2cccc(Cl)c2)nc14,> 50 µM
9,CCOC(=O)[C@]1(C)CCC[C@@]2(C)[C@@H]3CC[C@@]4(C)C[C@]3(CC[C@@H]21)c1cn(C(=S)Nc2cccc(C)c2)nc14,> 50 µM
10,CCOC(=O)[C@]1(C)CCC[C@@]2(C)[C@@H]3CC[C@@]4(C)C[C@]3(CC[C@@H]21)[C@@H]1CON(C(=S)Nc2ccccc2Br)[C@@H]14,> 50 µM
11,CCOC(=O)[C@]1(C)CCC[C@@]2(C)[C@@H]3CC[C@@]4(C)C[C@]3(CC[C@@H]21)[C@@H]1CON(C(=S)Nc2ccccc2F)[C@@H]14,> 50 µM
12,CCOC(=O)[C@]1(C)CCC[C@@]2(C)[C@@H]3CC[C@@]4(C)C[C@]3(CC[C@@H]21)c1cn(C(=S)Nc2ccccc2Br)nc14,43.4 µM
13,CCOC(=O)[C@]1(C)CCC[C@@]2(C)[C@@H]3CC[C@@]4(C)C[C@]3(CC[C@@H]21)c1cn(C(=S)Nc2ccccc2OC)nc14,> 50 µM
14,CCOC(=O)[C@]1(C)CCC[C@@]2(C)[C@@H]3CC[C@@]4(C)C[C@]3(CC[C@@H]21)c1cn(C(=S)Nc2ccc(Cl)cc2)nc14,39 µM
15,CCOC(=O)[C@]1(C)CCC[C@@]2(C)[C@@H]3CC[C@@]4(C)C[C@]3(CC[C@@H]21)[C@@H]1CON(C(=S)Nc2ccc(F)cc2)[C@@H]14,> 50 µM
16,CCOC(=O)[C@]1(C)CCC[C@@]2(C)[C@@H]3CC[C@@]4(C)C[C@]3(CC[C@@H]21)c1cn(C(=S)Nc2ccccc2Cl)nc14,> 50 µM
